In paper PMC9516243, “Design of stapled peptide-based PROTACs for MDM2/MDMX atypical degradation and tumor suppression” (Theranostics, 2022):
Positions of bridges follow the written chain, without caps; N, C: chain ends. Non-standard residues stand in square brackets, D forms with d. Residues, ends and D or L forms follow the SMILES beside them. Hyp = O=C(O)[C@@H]1C[C@@H](O)CN1; R8 = C=CCCCCCC[C@@](C)(N)C(=O)O; hLeu = CC(C)CC[C@H](N)C(=O)O; S5 = C=CCCC[C@](C)(N)C(=O)O; AEA = NCCOCC(=O)O

Assay: Pharmacokinetic study
Format: in vivo
Conditions: mouse, iv, male ICR mice, 1.8 mg/kg single i.v. tail vein, plasma, UPLC-ESI-QqQ-MS, n = 5
Description: The peptides (1.8 mg/kg) were individually dosed in mice intravenously via tail vein injection and the blood samples were collected from the orbital venous plexus at 0, 0.5, 1, 2, 4, 6, 10, 24, and 48 h. All blood samples were centrifuged at 3000 rpm for 10 min, and the obtained plasma samples were immediately frozen at -80 °C until use. The standard curve was established as follows: Stock solutions of PMI-HIF1-1 and SPMI-HIF2-1 dissolved in acetonitrile were spiked into control plasma at final concentrations of 4000, 2000, 1000, 500, 250, 125, 62.5, 31.25, 15.625, 7.8125, 3.90625, 1.953125, and 0.9765625 ng/ml. […] Plasma samples (30 μL) were treated with 90 μL acetonitrile for protein precipitation. Then all samples were vortexed for 2 min and centrifuged for 15 min at 13000 rpm and 4°C. The supernatants were analyzed by ultraperformance liquid chromatography-electrospray ionization-tandem triple quadrupole mass spectrometry (UPLC-ESI-QqQ-MS, Shimadzu 8040). The system was equipped with an XBridge BEH C18 column (2.5 μm, 2.1×100 mm; Waters, Milford, MA, USA). The column temperature was set at 35°C. The injection volume was 4 μl. […] The plasma concentration at each time point was calculated from the extracted peak area of the same mass peaks of each peptide using the corresponding standard curve.

CC(=O)N[C@H](C(=O)N[C@@H](CO)C(=O)N[C@@H](Cc1ccccc1)C(=O)N[C@]1(C)CCCCCCC=CCCC[C@@](C)(C(=O)NCCOCC(=O)N[C@@H](CC(C)C)C(=O)N[C@@H](C)C(=O)N2C[C@H](O)C[C@H]2C(=O)N[C@@H](Cc2ccc(O)cc2)C(=O)N[C@@H](CCC(C)C)C(=O)N2CCC[C@H]2C(N)=O)NC(=O)[C@H](CC(C)C)NC(=O)[C@H](CC(C)C)NC(=O)[C@H](C)NC(=O)[C@H](Cc2c[nH]c3ccccc23)NC(=O)[C@H](Cc2ccc(O)cc2)NC(=O)[C@H](CCC(=O)O)NC1=O)[C@@H](C)O [SPMI-HIF2-1] (Ac-TSF[R8]EYWALL[S5][AEA]LA[Hyp]Y[hLeu]P-NH2; staple 4-11)
Cmax (mean): 17700 ng/mL | AUC(0-inf): 43900 ng·h/mL | MRT: 11.5 h | half-life (read-out: half-life (t1/2) (converted)): 9.3 h
